US20240245783A1, “METALLO-BETA-LACTAMASE INHIBITOR” (priority 2021, published 2024)

Target: T1, recombinant metallo-β-lactamase (recombinant IMP-1) (Serratia marcescens, UniProt P52699)
T1 construct: made in house; host or cells: E. coli BL21(DE3), vector pET29a
Test: Inhibition of meropenem degradation by recombinant IMP-1 (Test Example 1)
Assay type: biochemical
Conditions: 100 μM meropenem, no inhibitor; 1 hour at 37° C.
Protocol: Based on the description of NON PATENT LITERATURE 5, a recombinant metallo-β-lactamase (recombinant IMP-1) was prepared. “NG_049172” of Database: RefSeq as the IMP-1 gene was incorporated into vector pET29a (Novagen), and then expressed in E. coli BL21(DE3) (Invitrogen).
Recombinant IMP-1 was dissolved in a 50 mM sodium phosphate buffer (pH 7.6) at a concentration of 0.25 μg/ml. Furthermore, zinc chloride was added to the solution in such a manner that the concentration was 0.1 μM. The resultant in this state was subjected to preincubation at 37° C. for 10 minutes. […] After 1 hour of incubation at 37° C. residual meropenem was quantified by tandem mass spectrometry. Meropenem was quantified by a multiple reaction monitoring method. […]
Reverse phase column: YMC-Triat C18 Plus column (2.1×50 mm); column temperature: 45° C.; mobile phase (2 liquids): mobile phase A (0.1% formic acid aqueous solution), mobile phase B (acetonitrile); gradient: increase from 1% B to 80% B for 10 minutes, keep it at 80% B for 0.5 minutes, and then return it to 1% B over 1 minute. […] Detection: multiple reaction monitoring, parent ion at 384.2, child ion at 68.1; measured in a positive ion mode.
FIG. 4 depicts a graph showing the results of quantifying the peak area of meropenem detected in FIG. 3. The peak of meropenem alone is expressed as 100%.

T1 sequence (P52699 19-246 limits assumed): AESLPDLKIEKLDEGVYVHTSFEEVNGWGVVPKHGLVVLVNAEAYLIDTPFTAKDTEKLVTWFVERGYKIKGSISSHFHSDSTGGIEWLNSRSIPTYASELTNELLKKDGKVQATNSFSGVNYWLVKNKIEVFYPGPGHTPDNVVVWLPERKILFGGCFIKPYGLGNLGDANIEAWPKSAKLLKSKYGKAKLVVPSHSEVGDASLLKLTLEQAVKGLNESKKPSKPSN

For `C[C@@H](O)[C@H]1C(=O)N2C(C(=O)O)=C(S[C@@H]3CN[C@H](C(=O)N(C)C)C3)[C@H](C)[C@H]12` [meropenem, reference compound], the “degradation of meropenem on incubation with IMP-1” value was “completely degraded”.
